Experimental data taken from patent US20030008857A1, “Photodynamic therapy (PDT) in combination with factors that bind cell surface apoptosis-inducing receptors” (priority 1999, published 2003).
Entries after “also recorded” stand apart in the source; their conditions may differ.

How the values were obtained:
Format in all cases: cell-based, human
caspase-3, -6 and -8 = assay: Caspase cleavage activity of cell extracts, statements covering DEVD, VEID and IETD peptides together; conditions: for protease activity on DEVD, VEID and IETD peptides, single treatment: FIG. 7: verteporfin 5 ng/ml with light, FasL 7.5 ng/ml or TRAIL 20 ng/ml alone
Protocol: (§1) The human Jurkat T cell line containing a neomycin resistance gene was obtained from Dr. Charles Rudin (University of Chicago). Cells were maintained in RPMI 1640 medium containing 10% heat-inactivated fetal calf serum (FCS) with penicillin (100 U/mL), streptomycin (100 μg/mL), 20 mM HEPES, 2 mM L-glutamine and G418 (1 μg/ml) purchased from Gibco BRL (Burlington, Ontario) in a CO2 incubator at 37° C. To elicit apoptosis with PDT, Jurkat cells were incubated with different amounts of liposomally formulated benzoporphyrin derivative monoacid ring A (BPD-MA, verteporfin, QLT PhotoTherapeutics, Inc., Vancouver, Canada) for one hour at 37° C. under light-protected conditions. The culture medium used for experiments was identical to that used for the passage of the cells except that FCS was used at a concentration of 5%. Experiments were conducted either in 6-well culture plates at 5×10^6 cells in a volume of 4 ml per well or in 96-well microtiter plates at 1×10^5 cells per well at 0.2 ml per well. Cells were irradiated with light of a wavelength of 690 nm delivered at 65-73 mW/sec from light emitting diodes (LED) to achieve a total light dose of 5 J/cm^2. Cells were returned to the incubator until required for analysis.
(§2) FasL and TRAIL as used were recombinant preparations. FasL was obtained from Upstate Biotechnology (Lake Placid NY) and corresponded to amino acids 103-281 of the soluble domain of human FasL. TRAIL was obtained from BIOMOL Research Laboratories (Plymouth Meeting, Pa.) and corresponded to residues 114-281 of the soluble domain of human TRAIL. FasL and TRAIL were usually added immediately following the treatment of cells with PDT, although in one series of experiments these factors were added at 1, 2 or 3 hours post-irradiation.
(§3) Whole cell lysates were prepared by washing 1×10^7 cells per sample twice with ice-cold PBS. Cells were disrupted with 1 mL of lysis buffer [1% Nonidet P-40 detergent (NP-40), 20 mM Tris-HCl, pH 8.0, 137 mM NaCl, 10% glycerol, 1 mM phenylmethylsulfonyl fluoride (PMSF) aprotinln (0.15 U/mL) and 1 mM sodium orthovanadate] for 20 minutes on ice. Lysates were centrifuged for 10 minutes at 15,800×g at 4° C.
These sequences are denoted by letter codes for each amino acid. To evaluate relative DEVDase (caspases 3 and 7), VEIDase (caspase 6) and IETDase (caspase 8) cleavage activity, Jurkat cell lysates were incubated with caspase-specific fluorescent substrates as described by Granville et al. (“Photodynamic therapy induces caspase-3 activation in HL-60 cells”, Cell Death Differ., 4, 623-629 (1997)). Briefly, lysates were incubated with reaction buffer (20 mM Tris pH 7.5, 137 mM NaCl, 1% NP-40, 10% glycerol) containing 100 μM of the caspase substrates Ac-DEVD-AMC (Calbiochem, Cambridge, Mass.), Ac-VEID-AMC (Calbiochem, Cambridge, Mass.), Ac-lETD-AMC (BIOMOL, Plymouth Meeting Pa.), and Ac-LEHD-AMC (Calbiochem, Cambridge, Mass.). The letter codes for the amino acid residues present within the inhibitor peptides are as following: D=aspartic acid; E=glutamic acid; H=histidine; I=isoleucine; T=threonine; V=valine. The reaction mixture was incubated at 37° C. for 1 (DEVD.AMC) or 24 (VEID.AMC and IETH.AMC) h and fluorescence was measured using an excitation at 380 nm and an emission wavelength of 460 nm with a CytoFluor™ 2350 fluorescent measuring system (Perseptive Biosystems, Burlington, Ont).

cytochrome c = assay: Cytochrome c in cytosolic extracts of Jurkat cells (immunoblot)
Protocol: as §1, §2
To obtain cytosolic extracts, cells were treated with 0.6 ml of ice-cold buffer [250 mM sucrose, 20 mM Hepes pH 7.4, 10 mM KCl, 1.5 mM MgCl2, 1 mM EGTA, 1 mM EDTA, 1 mM dithiothreitol, 1 mM PMSF and aprotinin (10 μg/ml)]. Cells were disrupted by 20 strokes with the B pestle of a Kontes™ dounce homogenizer. Supernatant collected following centrifugation at 10000×g was further centrifuged at 100000×g for 1 h at 4° C. in a Beckman Optima™ ultracentrifuge using a TL-100 rotor. (Granville et al., “Rapid cytochrome c release, activation of caspases 3, 6, 7 and 8 followed by Bap31 cleavage in HeLa cells treated with photodynamic therapy”, FEBS Lett. 437, 5-10 (1998)).
To evaluate the activation state of different caspases and the status of other cellular proteins, whole cell lysates were separated by sodium dodecyl sulphate polyacrylamide gel electrophoresis (SDS-PAGE). […]

[1] = system: caspase-3, -6, -8 and -9 and PARP; assay: Western immunoblot of caspase processing and PARP cleavage in Jurkat cells
Protocol: as §1, §2, §3
To evaluate the activation state of different caspases and the status of other cellular proteins, whole cell lysates were separated by sodium dodecyl sulphate polyacrylamide gel electrophoresis (SDS-PAGE). Specifically, detergent-soluble proteins were separated by SDS-PAGE within 10% gels under reducing conditions as described by Laemmli et al. (“Cleavage of Structural Proteins During the Assembly of the Head of Bacteriophage T4”, Nature, 227, 680-685 (1970)). The proteins were transferred to nitrocellulose membranes at 100 volts for one hour. […]

[2] = FasL 7.5 ng/ml or TRAIL 20 ng/ml, 3 hours

| Substance | caspase activity compared with the treatments given independently (caspase-3, -6 and -8; FIG. 7: factor combined with PDT (verteporfin 5 ng/ml, 5 J/cm^2), 3 hours) | protease activity on DEVD, VEID and IETD peptides, single treatment (caspase-3, -6 and -8; 3 hours) | caspase activity compared with PDT or TRAIL applied independently (caspase-3, -6 and -8; TRAIL 20 ng/ml plus PDT, each verteporfin concentration, 3 hours) | protease activity compared with FasL or TRAIL alone (caspase-3, -6 and -8; factor plus verteporfin in the absence of light irradiation) | cytochrome c in cytosolic extracts, factor alone (cytochrome c; [2]) | cytochrome c in cytosolic extracts, factor with PDT (cytochrome c; PDT in combination with TRAIL 20 ng/ml or FasL 7.5 ng/ml, 3 hours) | caspase processing and PARP degradation compared with PDT or the factor alone ([1]; FasL 7.5 ng/ml or TRAIL 20 ng/ml combined with verteporfin PDT, 3 hours) | processing of caspases and PARP by the factor alone [1, 2] | verteporfin concentration at which the effect of PDT on caspase activity was greatest (caspase-3, -6 and -8; light 5 J/cm^2, extracts 3 hours post-PDT) [ng/mL] | effect of PDT alone on DEVDase-, VEIDase- and IETDase-like activity (caspase-3, -6 and -8; verteporfin and light 5 J/cm^2, no FasL or TRAIL, 3 hours post-PDT) | cytochrome c in cytosolic fractions, immediately versus three hours after photoirradiation (cytochrome c; verteporfin and light 5 J/cm^2) | cytochrome c within the cytosolic fraction (cytochrome c; verteporfin and light 5 J/cm^2, extracts prepared immediately afterward) | caspase processing after PDT alone ([1]; increasing verteporfin concentrations, 5 J/cm^2, 3 hours after irradiation) | caspase-3, -8, -9 and PARP processing after PDT alone ([1]; verteporfin 5 ng/ml, 5 J/cm^2, 3 hours (FIG. 8)) |
| --- | --- | --- | --- | --- | --- | --- | --- | --- | --- | --- | --- | --- | --- | --- |
| TRAIL: recombinant, residues 114-281 of the soluble domain of human TRAIL (BIOMOL) | higher caspase activity | modestly increased | higher | no different | background levels of cytochrome c | readily detectable amounts of cytochrome c | more extensive caspase processing and PARP degradation; also recorded: a higher degree of processing | minor processing; also recorded: little detectable processing | – | – | – | – | – | – |
| benzoporphyrin derivative monoacid ring A [verteporfin, reference compound] | – | modestly increased | – | – | – | – | – | – | 5 | promoted DEVDase-like, VEIDase-like and IETDase-like activity; also recorded: increased levels of DEVDase-like, VEIDase-like and IETDase-like activity | comparable levels of cytochrome c | immediate appearance of cytochrome c | evidence of caspase-3, -6, -8 and -9 processing; also recorded: processing of caspases-3, -6, -8 and -9 | a moderate degree |
